A value given as a limit tells only on which side of the number the result lay.

This assay deals with Onchocerca gutturosa Adult Male Worms. Briefly: Onchocerciasis in vitro screening model, worm motility score. Type of assay: cell-based. The following applies: Onchocerca gutturosa; Table 1 O. gutturosa; levels A/B/C; motility or MTT readout not specified; read-out: O. gutturosa activity level (IC50 or MED).
By IC50 is commonly meant the concentration that inhibits the measured activity by half. With `FC(F)(F)c1ccc(Nc2nc(-c3ccccn3)ns2)nc1` [Cmpd 1], the IC50 is < 200 nM.
Regarding `COc1ccc(Nc2nc(-c3ccccn3)ns2)nc1` [Cmpd 2, N-(5-methoxy-pyridin-2-yl)-3-(pyridin-2-yl)-1,2,4-thiadiazol-5-amine], the IC50 lay within 500 to 5000 nM.
Take `FC(F)(F)c1cncc(Nc2nc(-c3ccccn3)ns2)c1` [Cmpd 3, 3-(pyridin-2-yl)-N-(5-(trifluoromethyl)pyridin-3-yl)-1,2,4-thiadiazol-5-amine]: the IC50 is 500 to 5000 nM.
The value for `c1ccc(-c2nsc(Nc3ccc(N4CCNCC4)cn3)n2)nc1` [Cmpd 4, N-(5-(piperazin-1-yl)pyridin-2-yl)-3-(pyridin-2-yl)-1,2,4-thiadiazol-5-amine] was 500 to 5000 nM; that for `c1ccc(-c2nsc(Nc3ccc(N4CCOCC4)cn3)n2)nc1` [Cmpd 5, N-(5-morpholino-pyridin-2-yl)-3-(pyridin-2-yl)-1,2,4-thiadiazol-5-amine] was 500 to 5000 nM; that for `c1ccc(-c2nsc(Nc3ccc(N4CCCCC4)cn3)n2)nc1` [Cmpd 6, N-(5-(piperidin-1-yl)pyridin-2-yl)-3-(pyridin-2-yl)-1,2,4-thiadiazol-5-amine] was < 200 nM.
In the case of `c1ccc(-c2nsc(Nc3ccc(N4CCCC4)cn3)n2)nc1` [Cmpd 8, 3-(pyridin-2-yl)-N-(5-(pyrrolidin-1-yl)pyridin-2-yl)-1,2,4-thiadiazol-5-amine], the concentration for half-maximal inhibition (IC50) is < 200 nM.
For `c1ccc(-c2nsc(Nc3ccc(OC4CCOCC4)cn3)n2)nc1` [Cmpd 9, 3-(pyridin-2-yl)-N-(5-(tetrahydro-2H-pyran-4-yloxy)pyridin-2-yl)-1,2,4-thiadiazol-5-amine], the IC50 was 500 to 5000 nM.
In the case of `c1ccc(-c2nsc(Nc3ccc(OC4CCNCC4)cn3)n2)nc1` [Cmpd 10, N-(5-(piperidin-4-yloxy)pyridin-2-yl)-3-(pyridin-2-yl)-1,2,4-thiadiazol-5-amine], the IC50 fell in the range of 500 to 5000 nM.
With `CN1CCC(Oc2ccc(Nc3nc(-c4ccccn4)ns3)nc2)CC1` [Compound 11, N-(5-(1-methyl-piperidin-4-yloxy)pyridin-2-yl)-3-(pyridin-2-yl)-1,2,4-thiadiazol-5-amine], the IC50 fell in the range of 500 to 5000 nM.
Consider `Cc1ccnc(-c2nsc(Nc3ncccc3F)n2)c1` [Compound 12, N-(3-fluoropyridin-2-yl)-3-(4-methylpyridin-2-yl)-1,2,4-thiadiazol-5-amine], for which the IC50 was < 200 nM.
`Cc1ccnc(Nc2nc(-c3ncccc3C(F)(F)F)ns2)c1` [Compound 13, N-(4-methyl-pyridin-2-yl)-3-(3-(trifluoro-methyl)pyridin-2-yl)-1,2,4-thiadiazol-5-amine]: the IC50 lay in the range of 500 to 5000 nM.
With `Cc1ccnc(-c2noc(Nc3ncccc3F)n2)c1` [Compound 14, N-(3-fluoro-pyridin-2-yl)-3-(4-methylpyridin-2-yl)-1,2,4-oxadiazol-5-amine] the figure was 500 to 5000 nM.
Consider `Cc1cccnc1Nc1nc(-c2ccc(OC3CCOCC3)cn2)ns1` [Compound 15, N-(3-methyl-pyridin-2-yl)-3-(5-(tetrahydro-2H-pyran-4-yloxy)pyridin-2-yl)-1,2,4-thiadiazol-5-amine], for which the concentration for half-maximal inhibition (IC50) is < 200 nM.
Regarding `Cc1cccnc1Nc1nc(-c2ccc(OC3CCOCC3)cn2)no1` [Compound 16, N-(3-methyl-pyridin-2-yl)-3-(5-(tetrahydro-2H-pyran-4-yloxy)pyridin-2-yl)-1,2,4-oxadiazol-5-amine], the IC50 is < 200 nM.
For the compound `Cc1cccnc1Nc1nc(-c2ccc(C(=O)N(C)C)cn2)ns1` [Compound 17, N,N-dimethyl-6-(5-(3-methylpyridin-2-ylamino)-1,2,4-thiadiazol-3-yl)nicotinamide], the IC50 is < 200 nM.
With `Cc1cccnc1Nc1nc(-c2ccc(OC3CCN(C)CC3)cn2)ns1` [Compound 18, 3-(5-(1-methyl-piperidin-4-yloxy)pyridin-2-yl)-N-(3-methylpyridin-2-yl)-1,2,4-thiadiazol-5-amine], the IC50 lay in the range of 200 to 500 nM.
With `Cc1cccnc1Nc1nc(-c2ccc(OC(C)C)cn2)ns1` [Compound 19, 3-(5-isopropoxy-pyridin-2-yl)-N-(3-methyl-pyridin-2-yl)-1,2,4-thiadiazol-5-amine], the IC50 is < 200 nM.
Turning to `Cc1cccnc1Nc1nc(-c2ccc(OC(C)C)cn2)no1` [Compound 20, 3-(5-isopropoxy-pyridin-2-yl)-N-(3-methyl-pyridin-2-yl)-1,2,4-oxadiazol-5-amine], the IC50 is < 200 nM.
With `Cc1cccnc1Nc1nc(-c2ccc(OC3CCN(C)CC3)cn2)no1` [Compound 21, 3-(5-(1-methyl-piperidin-4-yloxy)pyridin-2-yl)-N-(3-methylpyridin-2-yl)-1,2,4-oxadiazol-5-amine] the figure was < 200 nM; with `Cc1cccnc1Nc1nc(-c2cc(C(=O)N(C)C)ccn2)ns1` [Compound 22, N,N-dimethyl-2-(5-(3-methylpyridin-2-ylamino)-1,2,4-thiadiazol-3-yl)isonicotinamide], 500 to 5000 nM.
`CNc1cccnc1Nc1nc(-c2cc(C)ccn2)ns1` [Compound 23, N3-methyl-N2-(3-(4-methylpyridin-2-yl)-1,2,4-thiadiazol-5-yl) pyridine-2,3-diamine]: the IC50 is < 200 nM.
With `COc1cccnc1Nc1nc(-c2cc(C)ccn2)ns1` [Compound 24, N-(3-methoxy-pyridin-2-yl)-3-(4-methyl-pyridin-2-yl)-1,2,4-thiadiazol-5-amine] the figure was < 200 nM; with `CCOc1ccc(Nc2nc(-c3ncccc3F)no2)nc1` [Compound 25, N-(5-ethoxy-pyridin-2-yl)-3-(3-fluoropyridin-2-yl)-1,2,4-oxadiazol-5-amine], < 200 nM.
For `Cc1cccnc1Nc1nc(-c2ccc(N3CCS(=O)(=O)CC3)cn2)ns1` [Compound 26, 4-(6-(5-((3-methylpyridin-2-yl)amino)-1,2,4-thiadiazol-3-yl)pyridin-3-yl)thio-morpholine 1,1-dioxide], the IC50 lay in the range of 500 to 5000 nM.
The value for `Fc1cccnc1-c1noc(Nc2cc(C(F)(F)F)ccn2)n1` [Compound 27, 3-(3-fluoropyridin-2-yl)-N-(4-(trifluoro-methyl)pyridin-2-yl)-1,2,4-oxadiazol-5-amine] was < 200 nM.
On to `FC(F)(F)c1ccnc(Nc2nc(-c3ccccn3)no2)c1` [Compound 28, 3-(pyridin-2-yl)-N-(4-(trifluoro-methyl)pyridin-2-yl)-1,2,4-o xadiazol-5-amine], for which the IC50 is < 200 nM.
In the case of `CC(=O)Nc1ccc(-c2nsc(Nc3ncccc3C)n2)nc1` [Compound 29, N-(6-(5-(3-methylpyridin-2-ylamino)-1,2,4-thiadiazol-3-yl)pyridin-3-yl) acetamide], the IC50 was 200 to 500 nM.
For `CN1CCC(Oc2ccc(-c3nsc(Nc4ncccc4F)n3)nc2)CC1` [Compound 30, N-(3-fluoro-pyridin-2-yl)-3-(5-(1-methyl-piperidin-4-yloxy)pyridin-2-yl)-1,2,4-thiadiazol-5-amine], the IC50 was < 200 nM.
The value for `Cc1cccnc1Nc1nc(-c2ccc(S(=O)(=O)N(C)C)cn2)ns1` [Compound 31, N,N-dimethyl-6-(5-(3-methylpyridin-2-ylamino)-1,2,4-thiadiazol-3-yl)pyridine-3-sulfonamide] was 500 to 5000 nM.
As to `Cc1cccnc1-c1nnc(Nc2ccccn2)o1` [Compound 32, 5-(3-methyl-pyridin-2-yl)-N-(pyridin-2-yl)-1,3,4-oxadiazol-2-amine], the IC50 was 500 to 5000 nM.
Turning to `c1ccc(Nc2nc(-c3ccccn3)ns2)nc1` [Compound 33, N,3-di(pyridin-2-yl)-1,2,4-thiadiazol-5-amine], the IC50 is < 200 nM.
As to `CN1CCC(Oc2ccc(-c3nsc(Nc4cc(C(F)(F)F)ccn4)n3)nc2)CC1` [Compound 34, 3-(5-(1-methyl-piperidin-4-yloxy)pyridin-2-yl)-N-(4-(trifluoro-methyl)pyridin-2-yl)-1,2,4-thiadiazol-5-amine], the IC50 lay within 500 to 5000 nM.
The value for `CCOc1ccc(Nc2nc(-c3cc(OC)ccn3)no2)nc1` [Compound 35, N-(5-ethoxy-pyridin-2-yl)-3-(4-methoxy-pyridin-2-yl)-1,2,4-oxadiazol-5-amine] was < 200 nM.
Turning to `CN1CCC(Oc2ccc(-c3nsc(Nc4ncccn4)n3)nc2)CC1` [Compound 36, 3-(5-(1-methyl-piperidin-4-yloxy)pyridin-2-yl)-N-(pyrimidin-2-yl)-1,2,4-thiadiazol-5-amine], the IC50 was 500 to 5000 nM.
With `Cc1ccnc(-c2nsc(Nc3ncccc3C(F)(F)F)n2)c1` [Compound 37, 3-(4-methyl-pyridin-2-yl)-N-(3-(trifluoro-methyl)pyridin-2-yl)-1,2,4-thiadiazol-5-amine] the figure was < 200 nM; with `Cc1cccnc1Nc1nc(-c2ccc(OC3CC3)cn2)ns1` [Compound 38, 3-(5-cyclo-propoxypyridin-2-yl)-N-(3-methyl-pyridin-2-yl)-1,2,4-thiadiazol-5-amine], < 200 nM.
Regarding `Cc1cccnc1Nc1nc(-c2cc(C#N)ccn2)ns1` [Compound 40, 2-(5-(3-methyl-pyridin-2-ylamino)-1,2,4-thiadiazol-3-yl)isonicotino-nitrile], the IC50 was 500 to 5000 nM.
The value for `Cc1cccnc1-c1nnc(Nc2ccccn2)[nH]1` [Compound 41, N-(5-(3-methyl-pyridin-2-yl)-4H-1,2,4-triazol-3-yl)pyridin-2-amine] was < 200 nM; that for `Cc1cccnc1-c1noc(Nc2ccc(N3CCCC3)cn2)n1` [Compound 42, 3-(3-methyl-pyridin-2-yl)-N-(5-(pyrrolidin-1-yl)pyridin-2-yl)-1,2,4-oxadiazol-5-amine] was < 200 nM; that for `COc1ccc(-c2nsc(Nc3ccc(OC4CCOCC4)cn3)n2)nc1` [Compound 43, 3-(5-methoxy-pyridin-2-yl)-N-(5-(tetrahydro-2H-pyran-4-yloxy)pyridin-2-yl)-1,2,4-thiadiazol-5-amine] was < 200 nM.
As for `Cc1cccnc1Nc1nc(-c2cc(C3CCN(C)CC3)ccn2)ns1` [Compound 44, 3-(4-(1-methyl-piperidin-4-yl)pyridin-2-yl)-N-(3-methylpyridin-2-yl)-1,2,4-thiadiazol-5-amine], the IC50 was < 200 nM.

(Values after patent publication US11505548B2, “Heterocyclic compounds and their use for treatment of helminthic infections and diseases” (Celgene Corporation, priority 2019, dated 2022).)
